Assay results published in PubChem BioAssay (NCI).
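A five-concentration, 48-hour dose response in 96-well plates underlies each endpoint, interpolated linearly between surrounding concentrations. TGI: concentration producing complete growth inhibition.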

Key:
Assay in all cases: NCI-60 cell line screen, 48 h
UACC-257 melanoma = tested on: UACC-257 melanoma
EKVX NSCLC = tested on: EKVX NSCLC
SNB-75 CNS = tested on: SNB-75 CNS
IGROV1 ovarian = tested on: IGROV1 ovarian
A498 renal = tested on: A498 renal
SK-MEL-5 melanoma = tested on: SK-MEL-5 melanoma
NCI-H23 lung = tested on: NCI-H23 lung
NCI/ADR-RES ovarian = tested on: NCI/ADR-RES ovarian
HCT-15 colon = tested on: HCT-15 colon
SR leukemia = tested on: SR leukemia
HS 578T breast = tested on: HS 578T breast
MDA-MB-231 breast = tested on: MDA-MB-231 breast
T-47D breast = tested on: T-47D breast
MDA-MB-435 = tested on: MDA-MB-435
HCT-116 colon = tested on: HCT-116 colon
A549 NSCLC = tested on: A549 NSCLC
CAKI-1 renal = tested on: CAKI-1 renal
U251 CNS = tested on: U251 CNS
NCI-H522 lung = tested on: NCI-H522 lung
NCI-H226 lung = tested on: NCI-H226 lung
TK-10 renal = tested on: TK-10 renal
NCI-H460 lung = tested on: NCI-H460 lung
CCRF-CEM leukemia = tested on: CCRF-CEM leukemia
SN12C renal = tested on: SN12C renal
M14 melanoma = tested on: M14 melanoma
SNB-19 CNS = tested on: SNB-19 CNS
MCF7 breast = tested on: MCF7 breast
SK-OV-3 ovarian = tested on: SK-OV-3 ovarian
BT-549 breast = tested on: BT-549 breast
HOP-62 NSCLC = tested on: HOP-62 NSCLC
RPMI-8226 leukemia = tested on: RPMI-8226 leukemia
HL-60(TB) leukemia = tested on: HL-60(TB) leukemia
HOP-92 NSCLC = tested on: HOP-92 NSCLC
K-562 leukemia = tested on: K-562 leukemia
MALME-3M melanoma = tested on: MALME-3M melanoma
KM12 colon = tested on: KM12 colon
HT29 colon = tested on: HT29 colon
SF-539 CNS = tested on: SF-539 CNS
SF-268 CNS = tested on: SF-268 CNS
SK-MEL-28 melanoma = tested on: SK-MEL-28 melanoma
SF-295 CNS = tested on: SF-295 CNS
COLO 205 colon = tested on: COLO 205 colon
DU-145 prostate = tested on: DU-145 prostate
OVCAR-8 ovarian = tested on: OVCAR-8 ovarian
UO-31 renal = tested on: UO-31 renal
RXF 393 renal = tested on: RXF 393 renal
MDA-N = tested on: MDA-N
SK-MEL-2 melanoma = tested on: SK-MEL-2 melanoma
OVCAR-5 ovarian = tested on: OVCAR-5 ovarian
SW-620 colon = tested on: SW-620 colon
OVCAR-4 ovarian = tested on: OVCAR-4 ovarian
OVCAR-3 ovarian = tested on: OVCAR-3 ovarian
UACC-62 melanoma = tested on: UACC-62 melanoma
MOLT-4 leukemia = tested on: MOLT-4 leukemia
786-0 renal = tested on: 786-0 renal
ACHN renal = tested on: ACHN renal
LOX IMVI melanoma = tested on: LOX IMVI melanoma
PC-3 prostate = tested on: PC-3 prostate
HCC-2998 colon = tested on: HCC-2998 colon

Measured: TGI

N=C(N)SCCON1C(=O)c2ccccc2C1=O
> 100 µM: UACC-257 melanoma | EKVX NSCLC | SNB-75 CNS | IGROV1 ovarian | A498 renal | SK-MEL-5 melanoma | NCI-H23 lung | NCI/ADR-RES ovarian | HCT-15 colon | SR leukemia | HS 578T breast | MDA-MB-231 breast | T-47D breast | MDA-MB-435 | HCT-116 colon | A549 NSCLC | CAKI-1 renal | U251 CNS | NCI-H522 lung | NCI-H226 lung | TK-10 renal | NCI-H460 lung | CCRF-CEM leukemia | SN12C renal | M14 melanoma | SNB-19 CNS | MCF7 breast | SK-OV-3 ovarian | BT-549 breast | HOP-62 NSCLC | RPMI-8226 leukemia | HL-60(TB) leukemia | HOP-92 NSCLC | K-562 leukemia | MALME-3M melanoma | KM12 colon | HT29 colon | SF-539 CNS | SF-268 CNS | SK-MEL-28 melanoma | SF-295 CNS | COLO 205 colon | DU-145 prostate | OVCAR-8 ovarian | UO-31 renal | RXF 393 renal | MDA-N | SK-MEL-2 melanoma | OVCAR-5 ovarian | SW-620 colon | OVCAR-4 ovarian | OVCAR-3 ovarian | UACC-62 melanoma | MOLT-4 leukemia | 786-0 renal | ACHN renal | LOX IMVI melanoma | PC-3 prostate

CC(=O)NNc1nc(C)c(C(/C=C/c2ccc3c(c2)OCO3)=N/Nc2ccccc2)s1
> 100 µM: UACC-257 melanoma | EKVX NSCLC | SNB-75 CNS | IGROV1 ovarian | A498 renal | SK-MEL-5 melanoma | NCI-H23 lung | NCI/ADR-RES ovarian | HCT-15 colon | SR leukemia | HS 578T breast | MDA-MB-231 breast | T-47D breast | MDA-MB-435 | HCT-116 colon | A549 NSCLC | CAKI-1 renal | U251 CNS | NCI-H522 lung | NCI-H226 lung | TK-10 renal | NCI-H460 lung | CCRF-CEM leukemia | SN12C renal | M14 melanoma | SNB-19 CNS | MCF7 breast | SK-OV-3 ovarian | BT-549 breast | HOP-62 NSCLC | RPMI-8226 leukemia | HL-60(TB) leukemia | HOP-92 NSCLC | K-562 leukemia | MALME-3M melanoma | KM12 colon | HT29 colon | SF-539 CNS | SF-268 CNS | SK-MEL-28 melanoma | SF-295 CNS | COLO 205 colon | DU-145 prostate | OVCAR-8 ovarian | HCC-2998 colon | UO-31 renal | RXF 393 renal | MDA-N | SK-MEL-2 melanoma | OVCAR-5 ovarian | SW-620 colon | OVCAR-4 ovarian | OVCAR-3 ovarian | UACC-62 melanoma | MOLT-4 leukemia | 786-0 renal | ACHN renal | LOX IMVI melanoma | PC-3 prostate
